According to ChEMBL document CHEMBL3507680, “University of Dundee, Gates Library screen for HepG2 cell viability”:

Assay: Human HepG2 cell viability assay in 384 well format
Assay type: toxicity, cell-based
Parameters: dose 125 nL, time 70.5 hour; concentration not given beside the values
Conditions: HepG2 cells, read-out: Inhibition

SMILES	cytotoxicity at 70.5 h [%]
CC(C)(C)c1csc(CNC(=O)C2NCCc3[nH]cnc32)n1 (stereo unspecified)	-9.53
Cc1cccc(CN(C(=O)CCn2cncn2)C(C)C)c1	-9.18
CN(C)c1ccc(CC(=O)N2C[C@H](C3CC3)[C@@H](N)C2)cc1	0.366
CN(CC(=O)N1CCOC(CCc2ccccc2)C1)Cc1ccccn1 (stereo unspecified)	-7.68
Cc1cc(NCCCc2c(C)noc2C)nc(N)n1	-10.4
CCc1c(C)sc2ncnc(N3CCN(C4CCOCC4)CC3)c12	-11.1
CCN(C(=O)c1c(Cl)cnn1CC)C(C)C(N)=O (stereo unspecified)	-11.3
COCCOCC(=O)N1C[C@H]2CC[C@@H]1CN(C1Cc3ccccc3C1)C2	-9.96
COc1cc(Cl)cc(C(=O)N2CCC3(CCCNC3)C2)c1 (stereo unspecified)	-5.79
C[C@@H]1CN(C(=O)CCCN2CCOCC2)C[C@@]1(O)C1CC1	-5.23
COCCN(Cc1cccc(OCCO)c1)Cc1ccccc1F	-2.88
COc1cc(C2CC(=O)Nc3c2nc2n3CCCC2)cc(OC)c1O (stereo unspecified)	-5.3
Cc1c(C(=O)N2CCC3(CCC(=O)N(CCN(C)C)C3)CC2)ccn1C	0.579
CCc1nccn1CCC(=O)N1CCCC1c1ccc(F)cc1 (stereo unspecified)	-1.42
CCOC(=O)c1n[nH]cc1CN1CCOC(Cc2ccc(F)cc2)C1 (stereo unspecified)	-3.8
Nc1nc2c(c(NCc3nc(-c4ccncc4)n[nH]3)n1)CCCC2	-0.22
Cc1cc(C)n(CC(C)NCCn2nc(C)c(Cl)c2C)n1 (stereo unspecified)	3.47
N#Cc1cccc(Oc2ccc(CN3CCCC3)cc2Cl)n1	18.1
Cn1cc(-c2c(C#N)c(N)nc3c2CCc2[nH]ccc2-3)cc1C#N	16.7
O=C(c1cccc(CO)n1)N1CCCC1c1nc2cc(F)ccc2[nH]1 (stereo unspecified)	16.2
CC(C)=CCC1(CO)CCCN(Cc2cnc(N3CCOCC3)nc2)C1 (stereo unspecified)	-6.39
CCn1ncc(C(=O)N2CCN(CC3CCCO3)CC2)c1C (stereo unspecified)	-0.538
CN(Cc1nccn1C)c1nccc(N2CCCC(O)C2)n1 (stereo unspecified)	2.11

SMILES	cytotoxicity at 70.5 h [%]
Cc1cncc(C(=O)N2CCCC(O)(CN(C)C)CC2)c1 (stereo unspecified)	7.68
c1ccc(-c2noc(CCNC3CCOC4(CCOCC4)C3)n2)nc1 (stereo unspecified)	-8.03
O=C1CCC2(CCN(Cc3cscn3)CC2)CN1[C@H]1CC[C@H](O)CC1	-13.1
Cc1nc(CN2CCC(Oc3ccc(F)cc3C)(C(=O)O)CC2)co1	-2.54
C=C(C)CNCC1(O)CCCN(Cc2ccc(F)c(F)c2)C1=O (stereo unspecified)	-1.61
C=Cc1cccc(CN2C[C@H]3CC[C@@H]2CN(Cc2c(C)noc2C)C3)c1	-0.99
CC(C)[C@H]1COC(=O)N1Cc1nnc(-c2ccccc2)o1	-1.91
CCOC(=O)N1CCC(NC(C)Cc2cc(C)n[nH]2)CC1 (stereo unspecified)	-0.223
CN(C(=O)CCc1ccncc1)C1CCCN(CCc2ccccc2)C1 (stereo unspecified)	-7.17
CCN(C)CC(=O)N1CCCC(c2nnc(CN3CCOCC3)n2C)C1 (stereo unspecified)	-4.67
COc1ccc2nc(CNC(=O)c3cc(C(C)C)on3)[nH]c2c1	-14.8
Cc1nc(CC(=O)N(C)C2CCCN(CCc3ccccc3)C2)cs1 (stereo unspecified)	-4.36
CCn1nc(CNC(=O)C2CCCN(C(=O)COC)C2)c2ccccc21 (stereo unspecified)	-5.41
CN1[C@H]2CC[C@@H]1CN(c1cc(Sc3cccs3)nc(N)n1)CC2	22.8
Cc1noc(-c2ccnc(Oc3ccc(CN4CCCC4)cc3F)c2)n1	13.3
Cc1ccc2c(c1)c(CNC(=O)C1CC(=O)N(C3CC3)C1)nn2C (stereo unspecified)	-4.12
O=C(c1cccc(-c2ccc(F)cc2)c1)N1CCC2(CC1)[C@H](O)C[C@@H]2O	-9.07
Cc1nc(CNc2nc(-c3ccco3)nc3c2CCNCC3)n[nH]1	-5.4
COc1cc(-c2cc(NC3CCCC3)nc3[nH]ccc23)nc(N)n1	-11.3
COCC(=O)N1CCC(C(=O)N(C)C(C)c2ccon2)CC1 (stereo unspecified)	-2.4
Cc1ccc(Oc2ncccc2CNC(=O)NC2CCCCC2)cn1	-6.45
Cc1nc[nH]c1CN1CCOC(c2ccc(Cl)c(Cl)c2)C1 (stereo unspecified)	-2.06
c1ccc(C(Cn2cccn2)Nc2cnccn2)cc1 (stereo unspecified)	-12.5

SMILES	cytotoxicity at 70.5 h [%]
CCC(CO)N(Cc1ccccn1)C(=O)c1cccc(C#N)c1 (stereo unspecified)	-1.64
CC1CCN(CC2(O)CCCN(Cc3cccc(F)c3F)C2=O)CC1 (stereo unspecified)	1.43
CN(CCc1ccccn1)C(=O)c1cn2c(n1)CNCC2	-8.81
CN(C)CC1(O)CCCN(C(=O)c2cnc(-c3ccccn3)nc2)C1 (stereo unspecified)	-3.36
CC(C)C(=O)N1CCN(C(=O)c2cc(C(C)C)no2)[C@H]2CS(=O)(=O)C[C@H]21	-0.523
Cc1cc(N(C)Cc2ncc[nH]2)nc(-c2ccccc2)n1	-6.89
O=C(c1ccc(C2CCCN2C(=O)c2cscn2)s1)N1CCSCC1 (stereo unspecified)	-11.1
COc1ccc([C@@H]2CN(c3cc(C(=O)O)ccn3)C[C@H]2N(C)C)cc1	25.7
CCc1cc(NCCc2cc(F)cc(F)c2)n2nccc2n1	-2.57
CS(=O)(=O)N1C[C@@H]2CC[C@H](C1)N(Cc1ccsc1)C2	34.2
CCc1ccc(-c2c(C)c(-c3cnn(C)c3)nc(N)c2C#N)o1	-6.72
COc1cccc(Cl)c1C(C(=O)O)N(C)Cc1c(C)n[nH]c1C (stereo unspecified)	-12.4
CCN1CCCC(c2c(-c3ccccc3)ncn2Cc2csc(N)n2)C1 (stereo unspecified)	-0.765
CN(Cc1cc2n(n1)CCCNC2)Cc1cc(-c2ccncc2)no1	-5.61
OC(CNc1nc(C2CCCC2)nc2c1CCNCC2)C(F)(F)F (stereo unspecified)	-7.87
CCn1cc(CNC(=O)CCc2nnc(-c3ccc(C)s3)o2)cn1	10
CCn1cnnc1CCNC(=O)CCNC(=O)c1ccccc1F	-6.14
CCS(=O)(=O)N[C@H]1CN(CC(C)(C)N2CCOCC2)C[C@@H]1C1CC1	-18.9
COCCN1CCCC(O)(CN2CCN(c3cnccn3)CC2)C1=O (stereo unspecified)	-3.08
CC(C)n1cnnc1CCNCc1cn(CCC(N)=O)c2ccccc12	-0.781
CC(C)NCc1cc2n(n1)CCN(C1CCCCC1)C2	9.14
CCCc1ccc2oc(C(=O)N3CCN(CCOC)CC3)c(C)c2c1	-2.68
COC1CCN(S(=O)(=O)NCC2COc3ccccc3C2)CC1 (stereo unspecified)	-4.76

SMILES	cytotoxicity at 70.5 h [%]
Cc1nc2ccc(S(=O)(=O)Nc3c(C)nn(CC(=O)O)c3C)cc2s1	-10.8
Cc1ccnn1CCC(=O)N1C[C@H]2CC[C@@H]1CN(CC(=O)N(C)C)C2	-0.432
CCC[C@H]1CN(Cc2cc(C#N)n(C)c2C)C[C@@H]1N(C)C	-7.07
C/C=C(\C)CN1C[C@@H](NC(=O)c2ccc(F)c(F)c2)C[C@H]1C(=O)NCC	-12.2
Cc1cc(C)n(CC(C)NCc2nc(-c3cccnc3)no2)n1 (stereo unspecified)	-6.9
Cc1nc(CN(C)Cc2cnc(N3CCOCC3)s2)no1	22.9
CCn1c(C2CCCN(Cc3cccc4cnccc34)C2)nn(C)c1=O (stereo unspecified)	-7.71
CC(=O)Nc1ccc(C(=O)Nc2cnc3n2CCCC3)cc1C	5.91
O=C(CCc1cc2n(n1)CCNC2)NCCS(=O)(=O)N1CCCC1	-11.2
Cc1c[nH]c(CN2CC[C@@]3(O)CCN(C(=O)C4CCC4)C[C@H]3C2)n1	-1.74
COc1ncc(C2(O)CCN(Cc3ccccc3O)CC2)c(OC)n1	7.32
COCCc1ncc(CN2CCC(Oc3ccccc3C)CC2)cn1	-0.184
Cc1nc(-c2cccc(C(=O)O)c2)cc(C2CCN(C(C)C)C2)n1 (stereo unspecified)	-2.07
Cc1cccnc1C(=O)N1CCCC(c2[nH]ncc2S(C)(=O)=O)C1 (stereo unspecified)	0.897
Cc1cccnc1C(=O)N1CCCCC1c1[nH]ncc1S(C)(=O)=O (stereo unspecified)	1.39
Cc1cnc(C(=O)N2CCCCC2c2[nH]ncc2S(C)(=O)=O)cn1 (stereo unspecified)	3.44
Cc1nccc(CN2CC[C@H](Oc3cccc(F)c3)[C@@](C)(O)C2)n1	-3.99
Cc1nccn1-c1cccc(C2CCCN2S(=O)(=O)N(C)C)n1 (stereo unspecified)	2.07
Cc1nc(C2CCCN2CC(=O)Nc2c(C)n[nH]c2C)no1 (stereo unspecified)	39
COc1c(C2CCCN2C(=O)c2sc(C)nc2C)c(C)nn1C (stereo unspecified)	10.6
COCc1cccc(CNC(=O)c2c(C)noc2C(C)C)c1	10.6
CC1CN(C)CCN1C(=O)c1ccn(-c2ccccc2)n1 (stereo unspecified)	17.4
CC1CN(C)CCN1C(=O)c1cnn(-c2cccc(Cl)c2)c1 (stereo unspecified)	-9.03

SMILES	cytotoxicity at 70.5 h [%]
Cc1n[nH]c(C)c1NC(=O)CN1CCCC1c1noc(C(C)C)n1 (stereo unspecified)	15.2
O=c1oc(-c2ccc(F)cc2)nn1CN1CCCCC1	-18.4
Cc1nc(-c2ccccc2)n(CC(=O)NC2CCCCC2)n1	-14.1
Cc1noc(C(C)C)c1C(=O)NCc1ccc(N(C)C)c(F)c1	-9.82
Cc1cc(CN2CCN(c3ccc4nncn4n3)C(C)C2)on1 (stereo unspecified)	20
CCOc1ccc2cc(C(=O)N3CCn4c(CC)nnc4C3)[nH]c2c1	-8.2
Cc1nc(-c2ccccc2C)n(CC(=O)NC2CCCC2)n1	19
CCc1nnc2n1CCN(C(=O)c1cc3ccc(C)cc3[nH]1)C2	-12.2
CCc1nnc2n1CCN(C(=O)c1cc3c(F)cccc3[nH]1)C2	-6.74
CN1CCN(C2CCN(CCOc3ccccc3F)CC2)C1=O	-11.6
CCOc1ccc(CC(=O)N2CCCC(n3nc(C)nc3C)C2)cc1 (stereo unspecified)	-5.27
COc1c(C2CCCN2C(=O)c2cscn2)c(C)nn1C (stereo unspecified)	18.5
Cc1nc(C)n(C2CCCN(C(=O)COc3ccccc3)C2)n1 (stereo unspecified)	-8.86
Cc1nc(C)n(C2CCCN(C(=O)CCOc3cccc(F)c3)C2)n1 (stereo unspecified)	-6.19
Cc1ncc(CN2CCN(c3ccc4nncn4n3)C(C)C2)s1 (stereo unspecified)	-11.1
COc1cccc(S(=O)(=O)NC(=O)CCC2CCCC2)c1	-8.64
COc1cccc(S(=O)(=O)NC(=O)COC2CCCCC2)c1	0.508
COCCc1noc(CN2CCCC2Cn2cccn2)n1 (stereo unspecified)	-9.31
CCc1csc(C2CCCN(C(=O)c3ccc(=O)n(CC)n3)C2)n1 (stereo unspecified)	-5.74
